Data reported in a melting point compilation (Tetko et al.; mined from patent text by program, amines drawn as free bases though some values may be those of a salt).

Row | Compound | melting point [°C]
1 | CC(C)(C)c1ccc2c(c1)CNC2=O | 132 to 134
2 | COc1cc2c(cc1OC)C(O)(CN)CCC2 (stereo not drawn) | 107 to 109
3 | O=C(O)Cc1c(-c2ccccc2)[nH]c2nccnc12 | 276 to 277
4 | COc1cccc(C(C[N+](=O)[O-])C2CCCCC2=O)c1 (racemic) | 125 to 126
5 | CCN1CCC(O)(c2cc(F)cc(Cl)c2)C1 (stereo not drawn) | 117 to 118
6 | NC(=O)c1ccccc1Nc1ccncc1 | 206 to 209
7 | O=C(O)c1cn(CC2CCC2)c2cc(Cl)ccc12 | 191 to 193
8 | CCN(CC)CCNC(=O)c1cc(Cl)c(N)cc1OCCNC(C)=O | 143 to 145
9 | CCCCOC(=O)C=C(C)C=CC=C(C)C=Cc1c(C)cc(OC)c(C)c1C | 80 to 81
10 | CCOC(=O)CCNC(=O)NC1CCN(c2ccc(C=NNOC(=O)OCC)cc2)C1=O (stereo not drawn) | 198 to 201
11 | Clc1cc(Cl)c(OCOCOc2c(Cl)cc(Cl)cc2Cl)c(Cl)c1 | 179 to 181
12 | CCNC(=O)Oc1ccccc1 | 49 to 50
13 | NCCc1c[nH]c2ccc3c(=O)n(CCc4ccccc4)ccc3c12 | 162 to 166
14 | COc1ccc(-c2cc(F)cc3c2NC(CN)CO3)c(Cl)c1 (stereo not drawn) | 84
15 | CCCc1ccc([C@H]2CC[C@H](O)CC2)cc1 | 78.2 to 80
16 | O=C(O)CCCCCCCCCCn1c(-c2ccccc2)c(-c2ccccc2)n(-c2ccccc2)c1=O | 83 to 84
17 | O=C(CSc1nc[nH]n1)c1ccccc1 | 119 to 120
18 | CSC=CC(C)(C)C(=O)Nc1ccc(Cl)cc1 | 105 to 106
19 | COC(=O)Oc1ccc(OC)cc1 | 33 to 34
20 | C=CCN(CC=C)Cc1nc(-c2ncn3c2[C@@H]2CCN2C(=O)c2c-3ccc(F)c2Cl)no1 | 103 to 104
21 | CCCCSc1c2sc3ccccc3nc-2ccc1=O | 72
22 | CCOC(C)OCC(C)C1CCC2C3CC=C4CC(O)CC(O)C4(C)C3CCC12C (stereo not drawn) | 124 to 126
23 | CC(C)c1ccc(Nc2ccccc2[N+](=O)[O-])c(C#N)c1 | 91 to 96
24 | CC1=Nc2cc(C)c(C)cc2C(=O)C1 | 120 to 122
25 | C=CCN(CC(=O)OC(C)(C)C)c1c(N)c(=O)c1=O | 175 to 176
26 | CCC12CCC3=C(CCc4cc(OC(C)=O)ccc43)C1=CCC2=O (stereo not drawn) | 122 to 124
27 | COC(=O)c1cccc2c(C(F)(F)F)c(OC)ccc12 | 79 to 80
28 | CC(C)(C)OC(=O)N1CCC(c2c(F)cc(N3C[C@H](COS(C)(=O)=O)OC3=O)cc2F)CC1 | 125 to 126

Row | Compound | melting point [°C]
29 | Cc1cc2c(c(C)c1Br)C(c1ccc(C(C)C)cc1)CO2 (stereo not drawn) | 90 to 91
30 | CCCCCCCCCCCc1nnc2n1-c1ccccc1C(c1ccccc1)=NC2 | 76 to 77
31 | CCCCP(=O)(C(=O)c1c(OC)cccc1OC)C(=O)c1c(OC)cccc1OC | 151 to 152
32 | COC(=O)CCNC(=O)c1cc(Cl)c([N+](=O)[O-])cc1[N+](=O)[O-] | 139 to 141
33 | O=CN(O)C1(CS(=O)(=O)c2ccc(Oc3ccc(OC(F)(F)F)cc3)cc2)CCC(C(=O)O)CC1 (stereo not drawn) | 207
34 | COc1ccc(-n2cnnc2SC)cc1 | 172
35 | CCCCCCCCCCC#CC#CCCCCCCCCC(=O)O | 57 to 58
36 | Cn1nnc(-c2ccc(-c3nnn(C)n3)nc2)n1 | 225 to 226
37 | CC(C(N)=O)C(=O)Nc1ccc(OCc2cccc(F)c2)cc1 (stereo not drawn) | 206
38 | O=[N+]([O-])c1c[nH]c(-c2c(Cl)cc(C(F)(F)F)cc2Cl)n1 | 254 to 255
39 | O=c1ccn(-c2cccc(C(F)(F)F)c2)nc1-c1ccsc1-c1ccccc1 | 167 to 168
40 | C=CCc1[nH]cc2c1-c1ccc(Cl)cc1C(c1ccccc1F)=NC2 | 212 to 214
41 | CN(C)C=Nc1c(Cl)cc(N=Cc2ccccc2F)cc1Cl | 79 to 81
42 | NS(=O)(=O)c1ccc(N2CN(C3CCCCC3)CC2=O)c(Cl)c1 | 188 to 190
43 | O=C(NNC(=O)c1occ(-c2ccccc2)c1-c1ccccc1)c1ccc(O)c([N+](=O)[O-])c1 | 214 to 217
44 | CCCCCCC(C)(C)c1cc(OCc2ccccc2)c(C2=C(C(C)(C)C#N)CCC(C)C2)c(OCc2ccccc2)c1 (stereo not drawn) | 65 to 66
45 | CS(=O)(=O)N(c1ccc(C#Cc2cnn3c(C(F)(F)F)cc(-c4ccc(C(F)(F)F)cc4)nc23)cn1)S(C)(=O)=O | 250 to 251
46 | CC(C)NC(=O)OCC(=O)c1ccc(Oc2ccccc2)cc1 | 89 to 90
47 | N#CC1CN1C(=O)NC(=O)c1cccs1 (stereo not drawn) | 156 to 160
48 | COc1ccc(-c2cc(=S)ss2)cc1 | 110 to 111
49 | CC(C)CCc1c(-c2ccc(S(C)(=O)=O)cc2)cnn(-c2ccc(F)cc2)c1=O | 151 to 154
50 | C#CCSC(=NC(=O)OC)NC(=O)Nc1ccc(C)cc1 | 161 to 162
51 | COc1cc(C(=O)NNC(=N)N)c(OC)cc1C | 193
52 | Cc1ccc(C(=S)Oc2ccc(C(=O)O)cc2)cc1C12CC3CC(CC(C3)C1)C2 | 276 to 277
53 | COC=C(C(=O)OC)c1ccccc1CSc1ccc2ccccc2c1 | 52 to 58
54 | O=C(O)c1cccnn1 | 156 to 158
55 | CCOC(=O)N1CCN(c2cc3nc(C(C)(C)C)sc3cc2[N+](=O)[O-])CC1 | 100 to 102

The remaining lines, values ahead:

Row | melting point [°C] | Compound
56 | 94.5 to 96.2 | O=C(Nc1ccc(Cl)cc1)c1ccccc1F
57 | 133 to 134 | O=c1c(-c2ccccc2)ccc2n1CCc1ccsc1-2
58 | 216 to 227 | Cc1cnc2c(NC(=O)c3c(Cl)cccc3Cl)cccc2c1Cl
59 | 140 to 142 | O=c1c2cc(Cl)ccc2ccc2ncccc12
60 | 254 | CCOc1cc(C)ccc1C1CCN(CCCCNC(=O)c2ccc(NC(=O)c3ccc(Cl)cc3)cc2)CC1
61 | 225 to 228 | COc1ccc(NC(C)=O)cc1NC(=O)NC(=O)c1cc(F)c(F)cc1Cl
62 | 187 to 189 | COc1ccc(NC(=O)c2ccc(F)c(F)c2)cc1NCc1cccs1
63 | 156 to 159 | COCc1cnc2c(NC(=O)c3ccccc3[N+](=O)[O-])cccc2c1N1CCN(C)C1=O
64 | 207 to 208 | Nc1nc(-c2cc(Cl)ccc2Cl)nc(N2CCC2)n1
65 | 180 to 182 | O=C(c1cc2ccc(O)cc2[nH]1)N1CCC(Cc2ccc(F)cc2)CC1
66 | 100 to 103 | COc1ccc(NS(=O)(=O)c2sc3ccc(Cl)cc3c2C)cc1N1CCN(C(=O)OC(C)(C)C)CC1
67 | 70 | COC(=O)c1ccc(CNC(=O)C2Cc3ccccc3N2S(=O)(=O)c2ccc(-c3cccc(C(F)(F)F)c3)cc2)cc1 (stereo not drawn)
68 | 129 | CCn1cc(C#Cc2cccc(OC)c2)cc1C(=O)O
69 | 113 | CCOC(=O)C1CCCCN1C(=O)c1ccc(Cl)c(C2(C)C(=O)N(Cc3ccc(OC)cc3OC)c3ccc(Cl)cc32)c1 (stereo not drawn)
70 | 120 | CNC(=O)c1ccc(F)c2c1CC(N(CCCc1c[nH]c3ccc(F)cc13)CC1CC1)CO2 (stereo not drawn)
71 | 74 to 75 | c1ccc(COc2cccc(CCCn3ccnn3)c2)cc1
72 | 119 to 120 | CCCc1cc(Cl)c2oc(C(=O)OCc3ccccc3)c(C)c2c1O
73 | 180 | COc1ccc(N2CCOCC2)c2sc(C(=O)NCC(=O)c3sc4ccccc4c3C)nc12
74 | 146 to 149 | CC(C)CN1C(=O)[C@@H](CC(=O)O)O[C@H](c2ccccc2OC(C)C)c2cc(Cl)ccc21 (relative stereo)
75 | 178 to 181 | Cn1cc(C(=O)NCc2ccc(Cl)cc2)c(=O)c2cc(CN3CCOCC3)cc(C#CCn3cnc(Cl)c3Cl)c21
76 | 105 to 107 | Cc1ccc2c(c1)c(-c1ccc(F)cc1)cn2N1CCN(C)CC1
77 | 128 to 132 | Cc1ccc(Sc2nc(Cl)cc(OCCOc3ccccc3)n2)cc1

Row | melting point [°C] | Compound
78 | 145 | CC(C)COC(=O)N[C@H](CCCNC(=O)OCc1ccccc1)C(=O)NCc1ccc(CC(N)=O)cc1
79 | 152 to 154 | COc1cc2c(cc1OC(=O)c1ccccc1)C1Cc3c(Cl)cc(OC)c(OC(=O)c4ccccc4)c3CN1CC2 (stereo not drawn)
80 | 117 to 119 | CCc1nc(/C=C/c2cn(-c3ccccc3)nc2OCc2ccc(OCc3nc(-c4ccc(CC(=O)O)cc4)oc3C)c(OC)c2)co1
81 | 94 to 96 | O=C(O)C1CCN(CC2CN(CC3CCN(c4ccncc4)CC3)C(=O)O2)CC1 (stereo not drawn)
82 | 175 to 177 | CCOC(=O)c1ccc(NC(=O)c2ccc3c(c2)C(C)(C)CC(=O)N3C)cc1
83 | 193 to 194 | O=C(NC(=S)Nc1nc(-c2ccc3c(c2)CCCC3)cs1)c1ccc(Cl)cc1
84 | 185 to 186 | [O-][N+]1=C(c2ccccc2F)c2cc(Cl)ccc2-c2ncncc2C1
85 | 198 to 203 | CN(C)CC(O)Cn1c2ccccc2c2c3c(c4c5ccccc5n(C)c4c21)C(=O)N(C)C3=O (stereo not drawn)
86 | 122 | CCc1noc(-c2ccc(OCCC3CCN(c4ccc(C)nn4)CC3)cc2)n1
87 | 163 to 165 | Cc1c(Br)cccc1N1CCn2c(cc3c2CCCC3)C1=O
88 | 157 to 159 | CN1CCN(c2c(F)c(NCc3ccccc3)c3nc(CC(N)=O)n(C4CC4)c3c2F)CC1
89 | 248 to 255 | O=C(NC(Cc1ccccc1)C(=O)O)c1cc2cc(Cl)ccc2[nH]1 (stereo not drawn)
90 | 135 | O=C(Nc1cccc2[nH]ccc12)c1ccccc1OCCCCBr
91 | 118 to 120 | O=C(O)CCCc1ccc(-c2ccc(F)cc2)cc1
92 | 132 to 134 | COc1c(N2C[C@H]3CCOC[C@@]3(N)C2)c(F)cc2c(=O)c(C(=O)O)cn([C@@H]3C[C@@H]3F)c12
93 | 254 to 256 | c1ccc(Cn2ncc3c(NCC4CCCCC4)c4ccccc4nc32)cc1
94 | 61 to 63 | C=CCOc1ccc2c(C)cc(=O)oc2c1C(=O)C=Cc1cccc(OC)c1
95 | 98 to 100 | CS(=O)(=O)c1ccc(-c2cc(COCCO[N+](=O)[O-])nn2CC2CCCCC2)cc1
96 | 186 to 191 | C=CCn1c(NCC(F)(F)F)nc(N2CCc3ccccc3CC2)c(C#N)c1=O
97 | 193 to 196 | Cc1c(NC(=O)c2ccc(-c3ccc(F)cc3)cc2)ccc2cc(CN3CCCC3CC(C)C)cnc12 (stereo not drawn)
98 | 227 | O=C(Nc1cccc(S(=O)(=O)NCCO)c1)c1cnn2c(C(F)(F)F)cc(-c3ccc(C(F)(F)F)cc3)nc12
